What was measured:
Test in all cases: Transient transfection (transactivation) assay in CV-1 cells, GAL4-PPAR chimera, luciferase reporter
Assay type in all cases: cell-based
[1] = biological target: T1, PPAR gamma (Homo sapiens, UniProt P37231)
T1 construct: expressed in transfected cells; host or cells: CV-1 cells
T1 sequence (P37231 238-503 limits assumed): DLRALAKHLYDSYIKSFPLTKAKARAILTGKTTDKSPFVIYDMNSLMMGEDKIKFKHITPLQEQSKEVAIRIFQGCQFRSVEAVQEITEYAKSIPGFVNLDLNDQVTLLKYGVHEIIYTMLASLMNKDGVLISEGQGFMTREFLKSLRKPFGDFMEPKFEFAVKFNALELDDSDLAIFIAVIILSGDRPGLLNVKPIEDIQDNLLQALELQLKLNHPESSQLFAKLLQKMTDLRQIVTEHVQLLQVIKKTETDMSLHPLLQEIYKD

[2] = biological target: T2, PPAR alpha (Homo sapiens, UniProt Q07869)
T2 construct: expressed in transfected cells; host or cells: CV-1 cells
T2 sequence (Q07869 239-466 limits assumed): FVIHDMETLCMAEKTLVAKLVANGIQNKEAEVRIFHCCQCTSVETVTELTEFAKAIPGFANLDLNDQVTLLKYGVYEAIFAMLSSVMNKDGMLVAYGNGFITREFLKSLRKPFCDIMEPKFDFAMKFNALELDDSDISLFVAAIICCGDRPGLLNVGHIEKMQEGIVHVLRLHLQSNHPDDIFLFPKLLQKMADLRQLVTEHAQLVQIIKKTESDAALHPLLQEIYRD
Summary of the method: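 EC50 and efficacy come from a luciferase read-out after 20-24 hours of compound exposure (vehicle 1% DMSO) in transiently transfected CV-1 cells. These cells express a GAL4-PPAR ligand-binding-domain chimera plus a reporter with four or five GAL4 binding sites, and are kept in phenol-red free DME with 5% delipidated calf serum.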

[3] = biological target: T3, PPAR delta (Homo sapiens, UniProt Q03181)
T3 construct: expressed in transfected cells; host or cells: CV-1 cells
T3 sequence (Q03181 211-439 limits assumed): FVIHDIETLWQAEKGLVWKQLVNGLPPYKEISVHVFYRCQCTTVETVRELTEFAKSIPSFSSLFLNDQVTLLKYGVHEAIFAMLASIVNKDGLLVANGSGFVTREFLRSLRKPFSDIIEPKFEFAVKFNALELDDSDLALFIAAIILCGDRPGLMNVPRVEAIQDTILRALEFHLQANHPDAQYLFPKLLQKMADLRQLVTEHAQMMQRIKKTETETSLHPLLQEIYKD

| SMILES | EC50 [1] [µM] | EC50 [2] [µM] | EC50 [3] [µM] |
| --- | --- | --- | --- |
| Cc1ccc(N2CCN(S(=O)(=O)c3cc(CC(=O)O)ccc3C)CC2)c(C)c1 [Example 148, {3-[4-(2,4-Dimethyl-phenyl)-piperazine-1-sulfonyl]-4-methyl-phenyl}-acetic acid] | > 100 | > 100 | > 100 |
| Cc1cccc(N2CCN(S(=O)(=O)c3cc(CC(=O)O)ccc3C)CC2C)c1 (stereo not drawn) [Example 149, [4-Methyl-3-(3-methyl-4-m-tolyl-piperazine-1-sulfonyl)-phenyl]-acetic acid] | 5 to 100 | > 100 | > 100 |
| Cc1ccc(N2CCN(S(=O)(=O)c3cc(CC(=O)O)ccc3C)CC2)cc1C [Example 150, {3-[4-(3,4-Dimethyl-phenyl)-piperazine-1-sulfonyl]-4-methyl-phenyl}-acetic acid] | 5 to 100 | > 100 | 5 to 100 |
| Cc1ccc(Cl)cc1N1CCN(S(=O)(=O)c2cc(CC(=O)O)ccc2C)CC1 [Example 151, {3-[4-(5-Chloro-2-methyl-phenyl)-piperazine-1-sulfonyl]-4-methyl-phenyl}-acetic acid] | 5 to 100 | > 100 | > 100 |
| Cc1ccc(CC(=O)O)cc1S(=O)(=O)N1CCN(CCc2ccccc2)CC1 [Example 152, [4-Methyl-3-(4-phenethyl-piperazine-1-sulfonyl)-phenyl]-acetic acid] | 5 to 100 | > 100 | > 100 |
| Cc1ccc(CC(=O)O)cc1S(=O)(=O)N1CCN(c2ccc(C#N)cc2)CC1 [Example 153, {3-[4-(4-Cyano-phenyl)-piperazine-1-sulfonyl]-4-methyl-phenyl}-acetic acid] | > 100 | > 100 | > 100 |
| Cc1ccc(CC(=O)O)cc1S(=O)(=O)N1CCN(Cc2ccc(F)cc2)CC1 [Example 154, {3-[4-(4-Fluoro-benzyl)-piperazine-1-sulfonyl]-4-methyl-phenyl}-acetic acid] | 5 to 100 | > 100 | > 100 |
| COc1ccc(N2CCN(S(=O)(=O)c3cc(CC(=O)O)ccc3C)CC2)cc1 [Example 155, {3-[4-(4-Methoxy-phenyl)-piperazine-1-sulfonyl]-4-methyl-phenyl}-acetic acid] | > 100 | > 100 | > 100 |
| Cc1ccc(CC(=O)O)cc1S(=O)(=O)N1CCN(c2ccc(C(C)(C)C)cc2)CC1 [Example 156, {3-[4-(4-tert-Butyl-phenyl)-piperazine-1-sulfonyl]-4-methyl-phenyl}-acetic acid] | 5 to 100 | > 100 | 5 to 100 |
| COc1ccc(N2CCN(S(=O)(=O)c3cc(CC(=O)O)ccc3C)CC2)cc1OC [Example 157, {3-[4-(3,4-Dimethoxy-phenyl)-piperazine-1-sulfonyl]-4-methyl-phenyl}-acetic acid] | > 100 | > 100 | > 100 |
| Cc1ccc(CC(=O)O)cc1S(=O)(=O)N1CCN(c2ccc(C(F)(F)F)cc2[N+](=O)[O-])CC1 [Example 158, {4-Methyl-3-[4-(2-nitro-4-trifluoromethyl-phenyl)-piperazine-1-sulfonyl]-phenyl}-acetic acid] | > 100 | > 100 | 5 to 100 |
| COc1ccccc1N1CCN(S(=O)(=O)c2cc(CC(=O)O)ccc2C)CC1 [Example 159, {3-[4-(2-Methoxy-phenyl)-piperazine-1-sulfonyl]-4-methyl-phenyl}-acetic acid] | > 100 | > 100 | > 100 |
| Cc1ccc(C)c(N2CCN(S(=O)(=O)c3cc(CC(=O)O)ccc3C)CC2)c1 [Example 160, {3-[4-(2,5-Dimethyl-phenyl)-piperazine-1-sulfonyl]-4-methyl-phenyl}-acetic acid] | 5 to 100 | > 100 | > 100 |
| Cc1ccc(CC(=O)O)cc1S(=O)(=O)N1CCN(CC2CCCCC2)CC1 [Example 161, [3-(4-Cyclohexylmethyl-piperazine-1-sulfonyl)-4-methyl-phenyl]-acetic acid] | 5 to 100 | > 100 | > 100 |
| Cc1ccc(CC(=O)O)cc1S(=O)(=O)N1CCN(c2ccccc2C#N)CC1 [Example 162, {3-[4-(2-Cyano-phenyl)-piperazine-1-sulfonyl]-4-methyl-phenyl}-acetic acid] | > 100 | > 100 | > 100 |
